Measured values taken from US20090227607A1, “DEAZAPURINES USEFUL AS INHIBITORS OF JANUS KINASES” (priority 2006, published 2009).

Columns and labels:
JAK-2 enzyme = JAK-2 enzyme (Homo sapiens, UniProt O60674); test: JAK2 Inhibition Assay; assay type: biochemical; conditions: 15 μM poly(Glu)4Tyr, 12 μM ATP, 25° C.
Protocol: (§1) Compounds were screened for their ability to inhibit JAK3 using the assay shown below. Reactions were carried out in a kinase buffer containing 100 mM HEPES (pH 7.4), 1 mM DTT, 10 mM MgCl2, 25 mM NaCl, and 0.01% BSA. Substrate concentrations in the assay were 5 μM ATP (200 uCi/μmole ATP) and 1 μM poly(Glu)4Tyr. Reactions were carried out at 25° C. and 1 nM JAK3.
(§2) To each well of a 96 well polycarbonate plate was added 1.5 μl of a candidate JAK3 inhibitor along with 50 μl of kinase buffer containing 2 μM poly(Glu)4Tyr and […]. This was then mixed and […] of kinase buffer containing 2 nM JAK3 enzyme was added to start the reaction. After 20 minutes at room temperature (25° C.), the reaction was stopped with 50 μl of 20% trichloroacetic acid (TCA) that also contained 0.4 mM ATP. The entire contents of each well were then transferred to a 96 well glass fiber filter plate using a TomTek Cell Harvester. After washing, 60 μl of scintillation fluid was added and ^33P incorporation detected on a Perkin Elmer TopCount.
The assays were as described above in Example 36 except that JAK-2 enzyme was used, the final poly(Glu)4Tyr concentration was 15 μM, and final ATP concentration was 12 μM.
(§3) Tables 5 and 6 depict enzyme inhibition data (Ki) for certain exemplary compounds. Compound numbers in Tables 5 and 6 correspond to those compounds depicted in Tables 1 and 2, respectively.

JAK3 = target: T1, JAK3 (Homo sapiens, UniProt P52333); test: JAK3 Inhibition Assay; assay type: biochemical; conditions: 1 μM poly(Glu)4Tyr, 5 μM ATP, 1 nM JAK3, 25° C.; read-out: JAK3 enzyme inhibition data (Ki)
T1 sequence (P52333 1-1124): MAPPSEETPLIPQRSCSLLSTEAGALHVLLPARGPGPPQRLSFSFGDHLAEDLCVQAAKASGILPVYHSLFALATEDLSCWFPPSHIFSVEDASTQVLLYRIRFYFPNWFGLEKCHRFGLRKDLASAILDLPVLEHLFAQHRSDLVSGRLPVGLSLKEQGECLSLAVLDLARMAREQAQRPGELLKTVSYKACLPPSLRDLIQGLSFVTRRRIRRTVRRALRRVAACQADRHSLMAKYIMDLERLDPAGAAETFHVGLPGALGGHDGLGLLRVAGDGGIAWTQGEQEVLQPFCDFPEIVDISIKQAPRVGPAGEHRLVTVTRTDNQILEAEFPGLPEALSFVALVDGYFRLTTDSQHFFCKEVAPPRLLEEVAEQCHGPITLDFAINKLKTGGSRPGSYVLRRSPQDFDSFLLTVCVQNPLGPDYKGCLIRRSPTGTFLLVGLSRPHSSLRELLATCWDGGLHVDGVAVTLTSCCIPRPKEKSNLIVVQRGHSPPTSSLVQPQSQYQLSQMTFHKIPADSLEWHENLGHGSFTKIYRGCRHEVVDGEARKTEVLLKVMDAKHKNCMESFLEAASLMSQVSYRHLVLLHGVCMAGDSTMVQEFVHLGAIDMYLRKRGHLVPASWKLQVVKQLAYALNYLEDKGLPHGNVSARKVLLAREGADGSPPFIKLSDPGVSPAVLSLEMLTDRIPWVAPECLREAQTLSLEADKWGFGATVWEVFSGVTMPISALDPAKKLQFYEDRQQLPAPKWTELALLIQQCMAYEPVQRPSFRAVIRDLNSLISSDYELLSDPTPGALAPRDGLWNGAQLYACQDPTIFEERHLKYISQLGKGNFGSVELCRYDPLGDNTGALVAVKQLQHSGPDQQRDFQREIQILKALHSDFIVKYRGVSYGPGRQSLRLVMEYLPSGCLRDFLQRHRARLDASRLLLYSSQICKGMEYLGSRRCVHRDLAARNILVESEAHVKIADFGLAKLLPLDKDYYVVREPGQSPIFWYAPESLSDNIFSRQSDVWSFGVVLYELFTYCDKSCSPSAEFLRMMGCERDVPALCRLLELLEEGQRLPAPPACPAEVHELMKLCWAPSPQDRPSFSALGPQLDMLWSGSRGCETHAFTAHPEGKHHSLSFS
Protocol: as §1, §2, §3

JAK-2 enzyme, sequence (O60674 whole entry, species assumed): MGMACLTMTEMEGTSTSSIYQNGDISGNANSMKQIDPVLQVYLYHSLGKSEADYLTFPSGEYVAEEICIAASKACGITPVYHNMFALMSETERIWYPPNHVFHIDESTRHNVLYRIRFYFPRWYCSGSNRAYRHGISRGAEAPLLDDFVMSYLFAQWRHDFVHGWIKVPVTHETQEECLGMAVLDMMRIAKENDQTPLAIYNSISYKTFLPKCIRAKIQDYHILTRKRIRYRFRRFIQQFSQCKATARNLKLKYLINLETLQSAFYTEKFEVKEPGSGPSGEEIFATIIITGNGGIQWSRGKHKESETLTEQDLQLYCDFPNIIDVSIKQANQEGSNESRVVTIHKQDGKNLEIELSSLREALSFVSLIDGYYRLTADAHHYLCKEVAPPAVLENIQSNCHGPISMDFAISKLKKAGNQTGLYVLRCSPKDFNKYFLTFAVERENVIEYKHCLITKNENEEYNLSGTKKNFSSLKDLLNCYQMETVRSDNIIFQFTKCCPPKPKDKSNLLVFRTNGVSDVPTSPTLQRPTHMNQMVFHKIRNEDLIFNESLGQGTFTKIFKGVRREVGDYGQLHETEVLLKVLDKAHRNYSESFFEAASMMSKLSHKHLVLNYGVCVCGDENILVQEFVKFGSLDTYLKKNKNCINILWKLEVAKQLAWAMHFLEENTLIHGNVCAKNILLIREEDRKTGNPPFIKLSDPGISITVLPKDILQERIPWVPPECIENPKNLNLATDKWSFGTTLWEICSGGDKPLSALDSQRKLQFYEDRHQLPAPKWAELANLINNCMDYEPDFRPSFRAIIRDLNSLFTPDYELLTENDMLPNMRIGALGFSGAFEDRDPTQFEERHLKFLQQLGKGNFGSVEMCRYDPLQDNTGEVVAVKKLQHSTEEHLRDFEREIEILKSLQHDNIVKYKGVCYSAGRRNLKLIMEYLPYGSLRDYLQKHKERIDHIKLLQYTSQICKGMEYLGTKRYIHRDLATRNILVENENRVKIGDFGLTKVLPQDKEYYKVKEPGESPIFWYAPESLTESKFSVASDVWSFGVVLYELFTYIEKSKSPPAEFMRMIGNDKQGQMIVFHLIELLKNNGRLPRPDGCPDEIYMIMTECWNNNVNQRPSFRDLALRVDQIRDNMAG

Row | SMILES | Ki (JAK-2 enzyme) | Ki (JAK3)
1 | CCCC(CC)n1cc(-c2ncnc3[nH]ccc23)cn1 (stereo not shown) [Compound 94, 4-(1-(hexan-3-yl)-1H-pyrazol-4-yl)-7H-pyrrolo[2,3-d]pyrimidine] | < 100 nM | < 100 nM
2 | CCCCN(CCC)C(=O)c1cc(-c2ncnc3[nH]cc(C)c23)c[nH]1 [Compound 209] | < 100 nM | 100 to 500 nM
3 | FC(F)(F)CN(Cc1coc(-c2ncnc3[nH]ccc23)c1)CC1CC1 [Compound 131] | < 100 nM | < 100 nM
4 | CCCN(CC(F)(F)F)C(=O)c1ccc(-c2ncnc3[nH]ccc23)o1 [Compound 121] | < 100 nM | < 100 nM
5 | CCN(CCC#N)C(=O)c1cc(-c2ncnc3[nH]ccc23)cn1C [Compound 237] | < 100 nM | < 100 nM
6 | O=C(Nc1nc(-c2ncnc3[nH]ccc23)cs1)C1CCOCC1 [Compound 61] | < 100 nM | < 100 nM
7 | CCCC(C)n1cc(-c2ncnc3[nH]ccc23)cn1 (stereo not shown) [Compound 38] | < 100 nM | < 100 nM
8 | O=C(c1cc(-c2ncnc3[nH]cc(Cl)c23)c[nH]1)N(CCC(F)(F)F)CC1CC1 [Compound 227] | < 100 nM | < 100 nM
9 | O=C(c1ccc(-c2ncnc3[nH]ccc23)o1)N(CC1CC1)CC(F)(F)F [Compound 120] | < 100 nM | < 100 nM
10 | O=C(Nc1nc(-c2ncnc3[nH]ccc23)cs1)C(O)c1ccccc1 (stereo not shown) [Compound 101] | < 100 nM | < 100 nM
11 | CCCCC(C)n1cc(-c2ncnc3[nH]ccc23)cn1 (stereo not shown) [Compound 93] | < 100 nM | < 100 nM
12 | CC(C)CCn1cc(-c2ncnc3[nH]ccc23)cn1 [Compound 107] | < 100 nM | 100 to 500 nM
13 | O=C(c1cc(-c2ncnc3[nH]ccc23)co1)N(CCC(F)(F)F)CC1CCC1 [Compound 250] | < 100 nM | 100 to 500 nM
14 | CCC(C)CC(=O)Nc1nc(-c2ncnc3[nH]ccc23)cs1 (stereo not shown) [Compound 98] | < 100 nM | < 100 nM
15 | O=C(CC1CCCC1)Nc1nc(-c2ncnc3[nH]ccc23)cs1 [Compound 32] | < 100 nM | < 100 nM
16 | COC(C)C(=O)Nc1nc(-c2ncnc3[nH]ccc23)cs1 (stereo not shown) [Compound 97] | < 100 nM | 100 to 500 nM

Row | SMILES | Ki (JAK-2 enzyme) | Ki (JAK3)
17 | COc1ccc(C(=O)Nc2nc(-c3ncnc4[nH]ccc34)cs2)cc1 [Compound 175] | < 100 nM | 100 to 500 nM
18 | CCCC(CCC)n1cc(-c2ncnc3[nH]ccc23)cn1 [Compound 37] | < 100 nM | < 100 nM
19 | O=C(Nc1nc(-c2ncnc3[nH]ccc23)cs1)C1CC=CC1 [Compound 59] | < 100 nM | < 100 nM
20 | Cn1cc(-c2ncnc3[nH]ccc23)cc1C(=O)N(CC1CCC1)CC(F)(F)F [Compound 238] | < 100 nM | 100 to 500 nM
21 | O=C(c1ccc(-c2ncnc3[nH]ccc23)o1)N(CCC(F)(F)F)CC1CCCC1 [Compound 212] | < 100 nM | < 100 nM
22 | C[C@@H]1CC[C@@H](C)N1C(=O)c1cc(-c2ncnc3[nH]cc(Cl)c23)c[nH]1 [Compound 213] | < 100 nM | < 100 nM
23 | CCCN(C(=O)CC(C)C)c1nc(-c2ncnc3[nH]ccc23)cs1 [Compound 103, 3-Methyl-N-propyl-N-[4-(7H-pyrrolo[2,3-d]pyrimidin-4-yl)-thiazol-2-yl]-butyramide] | < 100 nM | < 100 nM
24 | CC(C)(CC(=O)O)CC(=O)Nc1nc(-c2ncnc3[nH]ccc23)cs1 [Compound 145] | 100 to 500 nM | 100 to 500 nM
25 | CC(C(=O)NCc1cccn1C)n1cc(-c2ncnc3[nH]ccc23)cn1 (stereo not shown) [Compound 89] | < 100 nM | 100 to 500 nM
26 | CCN(Cc1ccccc1)C(=O)c1cc(-c2ncnc3[nH]cc(C)c23)c[nH]1 [Compound 202] | < 100 nM | 100 to 500 nM
27 | CCCCCN(C)C(=O)c1cc(-c2ncnc3[nH]cc(C)c23)c[nH]1 [Compound 205] | < 100 nM | 100 to 500 nM
28 | CC(CC(F)(F)F)C(=O)Nc1nc(-c2ncnc3[nH]ccc23)cs1 (stereo not shown) [Compound 102] | < 100 nM | < 100 nM
29 | C=CCN(C(=O)CC(C)C)c1nc(-c2ncnc3[nH]ccc23)cs1 [Compound 128] | < 100 nM | < 100 nM
30 | O=C(c1ccc(-c2ncnc3[nH]ccc23)o1)N(CCC(F)(F)F)CC1CCC1 [Compound 215] | < 100 nM | < 100 nM
31 | CC(C)N(CCC(F)(F)F)C(=O)c1ccc(-c2ncnc3[nH]ccc23)o1 [Compound 210] | < 100 nM | < 100 nM

The remaining lines, values ahead:

Row | Ki (JAK-2 enzyme) | Ki (JAK3) | SMILES
32 | < 100 nM | < 100 nM | O=C(NCc1ccccc1)c1cc(-c2ncnc3[nH]ccc23)c[nH]1 [Compound 214]
33 | < 100 nM | 100 to 500 nM | C[C@H](O)CNC(=O)c1cc(-c2ncnc3[nH]ccc23)c[nH]1 [Compound 140]
34 | 100 to 500 nM | 500 to 5000 nM | O=C(c1cc(-c2ncnc3[nH]ccc23)c[nH]1)N1CCC(O)C1 (stereo not shown) [Compound 56]
35 | 100 to 500 nM | 100 to 500 nM | CC(C)NC(=O)C(C)n1cc(-c2ncnc3[nH]ccc23)cn1 (stereo not shown) [Compound 78]
36 | < 100 nM | 100 to 500 nM | COCCN(CCOC)C(=O)c1cc(-c2ncnc3[nH]ccc23)c[nH]1 [Compound 25]
37 | < 100 nM | 100 to 500 nM | CC(C)CN(C)C(=O)c1cc(-c2ncnc3[nH]ccc23)c[nH]1 [Compound 27]
38 | < 100 nM | 100 to 500 nM | CN(CC(F)(F)F)C(=O)c1cc(-c2ncnc3[nH]ccc23)c[nH]1 [Compound 55]
39 | < 100 nM | < 100 nM | CCC(CC)CNC(=O)c1cc(-c2ncnc3[nH]ccc23)c[nH]1 [Compound 138]
40 | 500 to 5000 nM | 500 to 5000 nM | O=C(c1cc(-c2ncnc3[nH]ccc23)c[nH]1)N1CCC(O)C1 (stereo not shown) [Compound 45]
41 | 100 to 500 nM | 100 to 500 nM | c1nc(-c2ccsc2)c2cc[nH]c2n1 [Compound 2]
42 | < 100 nM | < 100 nM | N#CCCN(Cc1cccnc1)C(=O)c1cc(-c2ncnc3[nH]ccc23)c[nH]1 [Compound 18]
43 | 100 to 500 nM | 100 to 500 nM | CN(CCc1ccccn1)C(=O)c1cc(-c2ncnc3[nH]ccc23)c[nH]1 [Compound 46]
44 | < 100 nM | < 100 nM | CN(CC(F)(F)F)C(=O)c1ccc(-c2ncnc3[nH]ccc23)o1 [Compound 127]
45 | 500 to 5000 nM | 100 to 500 nM | CC(CO)NC(=O)C(C)n1cc(-c2ncnc3[nH]ccc23)cn1 (stereo not shown) [Compound 79]
46 | < 100 nM | < 100 nM | O=C(c1cc(-c2ncnc3[nH]ccc23)co1)N(CC1CC1)CC(F)(F)F [Compound 231, N-(cyclopropylmethyl)-4-(7H-pyrrolo[2,3-d]pyrimidin-4-yl)-N-(2,2,2-trifluoroethyl)furan-2-carboxamide]
47 | < 100 nM | < 100 nM | O=C(NCC(F)F)c1cc(-c2ncnc3[nH]ccc23)c[nH]1 [Compound 10]
48 | < 100 nM | 100 to 500 nM | O=C(c1cc(-c2ncnc3[nH]ccc23)co1)N(CCC(F)(F)F)CC1CC1 [Compound 229, N-(cyclopropylmethyl)-4-(7H-pyrrolo[2,3-d]pyrimidin-4-yl)-N-(3,3,3-trifluoropropyl)furan-2-carboxamide]
49 | < 100 nM | 500 to 5000 nM | CCCN(C)C(=O)c1cc(-c2ncnc3[nH]ccc23)cn1C [Compound 234]
50 | 100 to 500 nM | < 100 nM | CCCNC(=O)C(C)n1cc(-c2ncnc3[nH]ccc23)cn1 (stereo not shown) [Compound 90]
